pEC50: −log10 of the molar value.

The test system of the first assay is HCV 1b_Huh-Luc/Neo-ET cell line persistently expressing a bicistronic genotype 1b replicon in Huh 7 cells. As to the kind of experiment: HCV replicon assay (luciferase readout, 72 h). The following applies: Hepatitis C virus, Huh-7, 72 h, read-out: Inhibition of HCV. It is filed as cell-based, HCV genotype 1b. On the procedure: Biological activity of the compounds of the invention was determined using an HCV replicon assay. The HCV 1b_Huh-Luc/Neo-ET cell line persistently expressing a bicistronic genotype 1b replicon in Huh 7 cells was obtained from ReBLikon GMBH. This cell line was used to test compound inhibition using luciferase enzyme activity readout as a measurement of compound inhibition of replicon levels.
On Day 1 (the day after plating), each compound is added in triplicate to the cells. Plates incubated for 72 h prior to running the luciferase assay. Enzyme activity was measured using a Bright-Glo Kit (cat. number E2620) manufactured by Promega Corporation. The following equation was used to generate a percent control value for each compound.
% Control=(Average Compound Value/Average Control)*100
The EC50 value was determined using GraphPad Prism and the following equation:
Y=Bottom+(Top-Bottom)/(1+10̂((LogIC50−X)*HillSlope))
EC50 values of compounds are determined several times in the replicon assay.
Example compounds of the disclosed invention are illustrated in Tables 1-16 attached as appendices. The tables show inhibitory activity of many of the example compounds with respect to HCV 1b. […] The tables further provide mass spectrometry results for the synthesized example compounds.
A general note: Replicon systems follow genome replication, usually without infectious particles.
In the case of `COC(=O)N[C@@H](C(=O)N1CCC[C@H]1c1nc2ccc(C#Cc3ccc4nc([C@@H]5CCCN5C(=O)[C@H](NC(=O)OC)c5ccccc5)[nH]c4c3)cc2[nH]1)c1ccccc1` [Compound 851], the pEC50 is over 9.00.

Staying with this assay, now noted: Hepatitis C virus, Huh-7, 72 h, read-out: Inhibition of HCV genotype 1b.
For `COC(=O)N[C@H](C(=O)N1CCC[C@H]1c1nc2ccc(C#Cc3ccc(-c4cnc([C@@H]5CCCN5C(=O)[C@H](C(C)C)N(C)C)[nH]4)cc3)cc2[nH]1)C(C)C` [Compound 866], the pEC50 was over 9.00.
Same read-out and setting: under `COC(=O)N[C@H](C(=O)N1CCC[C@H]1c1ncc(-c2ccc(C#Cc3ccc(-c4cnc([C@@H]5CCCN5C(=O)[C@@H](Nc5cccnc5)C(C)C)[nH]4)cc3)cc2)[nH]1)C(C)C` [Compound 995] stands over 9.00.
Still for that read-out and setting: under `COC(=O)N[C@H](C(=O)N1CCC[C@H]1c1nc2ccc3cc(C#Cc4ccc(-c5cnc([C@@H]6CCCN6C(=O)[C@@H](NC(=O)OC)C6CCOCC6)[nH]5)cc4F)ccc3c2[nH]1)C(C)C` [Compound 1099] stands over 9.00; under `COC(=O)N[C@@H](C(=O)N1CCC[C@H]1c1ncc(-c2ccc(C#Cc3ccc(-c4cnc([C@@H]5CCCN5C(=O)[C@H]5CCCO5)[nH]4)cc3)cc2)[nH]1)c1ccccc1` [Compound 177], over 9.00; under `COC(=O)N[C@@H](C(=O)N1CCC[C@H]1c1ncc(-c2ccc(C#Cc3ccc(-c4cnc([C@@H]5CCCN5C(=O)[C@@H](c5ccccc5)N(C)C)[nH]4)cc3)cc2)[nH]1)c1ccccc1` [Compound 174], over 9.00.
On the same count and under the same terms, the result for `COC(=O)N[C@H](C(=O)N1CCC[C@H]1c1nc2c([nH]1)-c1ccc(C#Cc3ccc4nc([C@@H]5CCCN5C(=O)[C@H](NC(=O)OC)c5ccccc5)[nH]c4c3)cc1CC2)C(C)C` [Compound 1103] reads over 9.00.
Take `CC(C)(C)OC(=O)N[C@@H](C(=O)N1CCC[C@H]1c1ncc(C#Cc2ccc(C#Cc3cnc([C@@H]4CCCN4C(=O)[C@H](NC(=O)OC(C)(C)C)c4ccccc4)[nH]3)cc2)[nH]1)c1ccccc1` [Compound 300]: the pEC50 is over 9.00.
The same measure, in the same setting: the result for `CC(C)(C)OC(=O)N[C@@H](C(=O)N1CCC[C@H]1c1ncc(C#Cc2ccc(-c3ccc(-c4cnc([C@@H]5CCCN5C(=O)[C@H](NC(=O)OC(C)(C)C)c5ccccc5)[nH]4)cc3)cc2)[nH]1)c1ccccc1` [Compound 757] reads over 9.00.
Still for that read-out and setting: the result for `O=C(N[C@@H](C(=O)N1CCC[C@H]1C(=O)NCc1ccc(C#Cc2ccc(-c3cnc([C@@H]4CCCN4C(=O)[C@H](NC(=O)C4CC4)c4ccccc4)[nH]3)cc2)cc1)c1ccccc1)C1CC1` [Compound 190] reads over 9.00; that for `CC(C)[C@@H](NC(=O)C1CC1)C(=O)N1CCC[C@H]1c1ncc(C#Cc2ccc(-c3cnc([C@@H]4CCCN4C(=O)[C@H](NC(=O)C4CC4)C(C)C)[nH]3)cc2)[nH]1` [Compound 107], 8.00 to 9.00.
Still for that read-out and setting: under `COC(=O)N[C@H](C(=O)N1CCC[C@H]1c1ncc(-c2ccc(C#Cc3ccc(-c4cnc([C@@H]5CCCN5C(=O)[C@@H](NC(=O)OC)C5CCOCC5)[nH]4)c(F)c3)cc2)[nH]1)C1CCOCC1` [Compound 1012] stands over 9.00.
With `CCOC(=O)N[C@@H](C(=O)N1CCC[C@H]1c1ncc(-c2ccc(C#Cc3ccc(-c4cnc([C@@H]5CCCN5C(=O)[C@H](NC(=O)OCC)c5ccccc5)[nH]4)cc3)cc2)[nH]1)c1ccccc1` [Compound 244], the pEC50 was over 9.00.
Same read-out and setting: under `CC(C)[C@@H](C(=O)N1CCC[C@H]1c1ncc(-c2ccc(C#Cc3ccc(-c4cnc([C@@H]5CCCN5C(=O)[C@H](C(C)C)N5CCOC5=O)[nH]4)cc3)cc2)[nH]1)N1CCOC1=O` [Compound 1006] stands 6.00 to 8.00.
On the same count and under the same terms, the result for `CC(C)OC(=O)N[C@@H](C(=O)N1CCC[C@H]1c1ncc(-c2ccc(C#Cc3ccc(-c4cnc([C@@H]5CCCN5C(=O)[C@H](NC(=O)OC(C)C)c5ccccc5)[nH]4)cc3)cc2)[nH]1)c1ccccc1` [Compound 227] reads over 9.00; that for `CC(C)[C@H](NC(=O)N1CCNCC1)C(=O)N1CCC[C@H]1c1ncc(-c2ccc(C#Cc3ccc(-c4cnc([C@@H]5CCCN5C(=O)[C@@H](NC(=O)N5CCNCC5)C(C)C)[nH]4)cc3)cc2)[nH]1` [Compound 967], 6.00 to 8.00.
The same measure, in the same setting: the result for `C[C@@H](NC(=O)C1CC1)C(=O)N1CCC[C@H]1c1ncc(C#Cc2ccc(-c3cnc([C@@H]4CCCN4C(=O)[C@@H](C)NC(=O)C4CC4)[nH]3)cc2)[nH]1` [Compound 111] reads 8.00 to 9.00; that for `O=C(N[C@@H](C(=O)N1CCC[C@H]1c1ncc(-c2ccc(C#Cc3ccc(-c4cnc([C@@H]5CCCN5C(=O)[C@H](NC(=O)N5CCOCC5)c5ccccc5)[nH]4)cc3)cc2)[nH]1)c1ccccc1)N1CCOCC1` [Compound 248], over 9.00; that for `COC(=O)N[C@@H](C(=O)N1CCC[C@H]1c1ncc(-c2ccc(C#Cc3ccc(-c4cnc([C@@H]5CCCN5C(=O)[C@H](NC(=O)N5CCC[C@@H]5CO)c5ccccc5)[nH]4)cc3)cc2)[nH]1)c1ccccc1` [Compound 254], over 9.00.
As for `CC(C)(C)OC(=O)N[C@@H](C(=O)N1CCC[C@H]1c1ncc(C#Cc2ccc(-c3cnc([C@@H]4CCCN4C(=O)[C@H](NC(=O)OC(C)(C)C)c4ccccc4)[nH]3)cc2)[nH]1)c1ccccc1` [Compound 99], the pEC50 was over 9.00.
Same read-out and setting: under `CN(C)[C@@H](C(=O)N1CCC[C@H]1c1ncc(C#Cc2ccc(C#Cc3cnc([C@@H]4CCCN4C(=O)[C@@H](c4ccccc4)N(C)C)[nH]3)cc2)[nH]1)c1ccccc1` [Compound 305] stands over 9.00.
`C[C@@H](NC(=O)C1CC1)C(=O)N1CCC[C@H]1c1ncc(-c2ccc(C#Cc3ccc(-c4cnc([C@@H]5CCCN5C(=O)[C@@H](C)NC(=O)C5CC5)[nH]4)cc3)cc2)[nH]1` [Compound 154]: the pEC50 is 8.00 to 9.00.
With `CC(C)(C)OC(=O)N[C@@H](C(=O)N1CCC[C@H]1C(=O)Nc1ccc(C#Cc2cnc([C@@H]3CCCN3C(=O)[C@H](NC(=O)OC(C)(C)C)c3ccccc3)[nH]2)cc1)c1ccccc1` [Compound 115], the pEC50 is over 9.00.
On the same count and under the same terms, under `COC(=O)N[C@H](C(=O)N1CCC[C@H]1c1ncc(-c2ccc(C#Cc3ccc(-c4cnc([C@@H]5CCCN5C(=O)[C@@H](Nc5ncccn5)C(C)C)[nH]4)cc3)cc2)[nH]1)C(C)C` [Compound 1003] stands over 9.00.
The same measure, in the same setting: under `O=C(N[C@@H](C(=O)N1CCC[C@H]1c1ncc(C#Cc2ccc(-c3ccc(-c4cnc([C@@H]5CCCN5C(=O)[C@H](NC(=O)N5CC[C@@H](O)C5)c5ccccc5)[nH]4)cc3)cc2)[nH]1)c1ccccc1)N1CC[C@@H](O)C1` [Compound 763] stands over 9.00.
The same measure, in the same setting: the result for `CS(=O)(=O)N[C@@H](C(=O)N1CCC[C@H]1c1ncc(-c2ccc(C#Cc3ccc(-c4cnc([C@@H]5CCCN5C(=O)[C@@H](c5ccccc5)N5CCCCC5)[nH]4)cc3)cc2)[nH]1)c1ccccc1` [Compound 231] reads over 9.00; that for `COC(=O)N[C@H](C(=O)N1CCC[C@H]1c1ncc(-c2ccc(C#Cc3ccc(-c4cnc([C@H](C)NC(=O)[C@H](C(C)C)N(C)C)[nH]4)cc3)cc2)[nH]1)C(C)C` [Compound 981], 6.00 to 8.00.

The same assay, now with this note: Hepatitis C virus, Huh-7, read-out: Inhibition of HCV genotype 1b.
Consider `COC(=O)N[C@@H](C(=O)N1CCC[C@H]1CNC(=O)c1ccc(C#Cc2ccc3nc([C@@H]4CCCN4C(=O)[C@H](NC(=O)OC)c4ccccc4)[nH]c3c2)cn1)c1ccccc1` [Compound 1241], for which the pEC50 is over 9.00.
Turning to `CC[C@H](C)[C@H](NC(=O)OC)C(=O)N1CCC[C@H]1c1ncc(-c2ccc(C#Cc3ccc4nc([C@@H]5CCCN5C(=O)[C@@H](NC(=O)OC)[C@@H](C)OC)[nH]c4c3)cc2)[nH]1` [Compound 1248], the pEC50 was over 9.00.
Same read-out and setting: the result for `COC(=O)N[C@H](C(=O)N1CCC[C@H]1c1nc2ccc3cc(C#Cc4ccc5nc([C@@H]6CCCN6C(=O)[C@H](NC(=O)OC6CCOCC6)c6ccccc6)[nH]c5c4)ccc3c2[nH]1)C(C)C` [Compound 1276] reads over 9.00; that for `COC(=O)NC(C(=O)N1CCC[C@H]1c1nc2ccc(C#Cc3ccc4cc(-c5cnc([C@@H]6CCCN6C(=O)[C@H](NC(=O)OC)c6ccccc6)[nH]5)ccc4n3)cc2[nH]1)C(C)C` (stereo partly drawn) [Compound 1289], over 9.00; that for `COC(=O)N[C@H](C(=O)N1CCC[C@H]1c1ncc(-c2ccc(C#Cc3ccc(-c4cnc([C@@H]5CCCN5C(=O)[C@@H](NC(=O)OC)C5CCOCC5)[nH]4)cc3)cc2)[nH]1)C1CCOCC1` [Compound 1218], over 9.00.
Same read-out and setting: under `COC(=O)N[C@H](C(=O)N1CCN(C(=O)OC)C[C@H]1c1ncc(-c2ccc(C#Cc3ccc(-c4cnc([C@@H]5CCCN5C(=O)[C@@H](NC(=O)OC)C5CCOCC5)[nH]4)cc3)cc2)[nH]1)C(C)C` [Compound 1205] stands over 9.00.
Still for that read-out and setting: under `COC(=O)N[C@H](C(=O)N1CCC[C@H]1c1ncc(-c2ccc(C#Cc3ccc(-c4cnc([C@@H]5CCCN5C(=O)[C@@H](NC(=O)OC)C5CCOCC5)[nH]4)cc3)cc2)[nH]1)C(C)C` [Compound 1219] stands over 9.00; under `COC(=O)N[C@H](C(=O)N1CCC[C@H]1c1nc(C#N)c(C#Cc2ccc3cc(-c4cnc([C@@H]5CCCN5C(=O)[C@@H](NC(=O)OC)[C@@H](C)OC)[nH]4)ccc3c2)[nH]1)C(C)C` [Compound 1268], over 9.00; under `COC(=O)N[C@H](C(=O)N1CCN(C(=O)OC)C[C@H]1c1ncc(-c2ccc(C#Cc3ccc(-c4cnc([C@@H]5CCCN5C(=O)[C@H](NC(=O)OC5CCOCC5)c5ccccc5)[nH]4)cc3)cc2)[nH]1)C(C)C` [Compound 1207], over 9.00.

Values taken from patent publication US20130296311A1, “INHIBITORS OF HCV NS5A” (PRESIDIO PHARMACEUTICALS, INC., priority 2010, published 2013).
